Residue numbers refer to the chain shown, from its start. Names may count otherwise.
Assays:
[1] = tested on: GFP-MyoVb-GTD; experiment: Co-immunoprecipitation from HEK293 cells; format: binding, Homo sapiens; conditions: anti-Myc co-IP, HEK293, immunoblot
Protocol: (§1) HEK293 cells were transfected with expression vectors encoding Myc-tagged Spir proteins and GFP-tagged myosin Va and myosin Vb fragments. 48 hr post transfection, cells were lysed in lysis buffer (25 mM Tris-HCl pH 7.4, 150 mM NaCl, 5 mM MgCl2, 10% (v/v) glycerol, 0.1% (v/v) Nonidet P-40, 1 mM Phenylmethylsulfonylfluorid (PMSF; Sigma-Aldrich), protease inhibitor cocktail (complete mini, EDTA-free; Roche, Penzberg, Germany)) and centrifuged at 20,000 x g, 4°C, 20 min to remove insoluble debris. The clarified supernatant was incubated with 4 µg anti-c-Myc antibody (9E10, mouse monoclonal; Santa Cruz Biotechnology; RRID: AB_627268) for 1 hr on ice. Subsequently, 40 µl Protein G-Agarose beads (1:1 suspension; Roche) were added and incubated for 2 hr at 4°C on a rotating wheel. Beads were washed with pulldown buffer (25 mM Tris-HCl pH 7.4, 150 mM NaCl, 5 mM MgCl2, 10% (v/v) glycerol, 0.1% (v/v) Nonidet P-40). Bound proteins were eluted with 1x Laemmli buffer and denatured for 10 min at 95°C, then analyzed by immunoblotting.

[2] = tested on: GFP-MyoVa-GTD; experiment: Co-immunoprecipitation from HEK293 cells; format: binding, Mus musculus; conditions: anti-Myc co-IP, HEK293, immunoblot, N = 2
Protocol: as §1

[3] = tested on: GST-Rab11a-Q70L; experiment: GST-pulldown from HEK293 lysates; format: binding; conditions: N = 2
Protocol: HEK293 cells were co-transfected with expression vectors encoding Myc-Spir-2-FL, mStrawberry-FMN2-FH2-FSI, eGFP-MyoVa-D-FL and eGFP-MyoVa-D-Q1753R, respectively. 24 hr post transfection, cells were lysed in lysis buffer (25 mM Tris-HCl pH 7.4, 150 mM NaCl, 5 mM MgCl2, 10% (v/v) glycerol, 0.1% (v/v) Nonidet P-40, 1 mM PMSF, protease inhibitor cocktail) and centrifuged at 20,000 x g, 4°C, 20 min to remove insoluble debris. For GST-pulldown assays 65 µg GST-Rab11a-Q70L protein (25 µg GST control) was coupled to GSH-Sepharose 4B beads (1:1 suspension) for 1 hr, 4°C on a rotating wheel. Beads were washed twice with pulldown buffer (25 mM Tris-HCl pH 7.4, 150 mM NaCl, 5 mM MgCl2, 10% (v/v) glycerol, 0.1% (v/v) Nonidet P-40) and subsequently incubated with the cell lysates for 2 hr at 4°C on a rotating wheel. Beads were washed four times with pulldown buffer and bound proteins were eluted with 1x Laemmli buffer and denatured at 95°C for 10 min, then were analyzed by immunoblotting.

[4] = tested on: AcGFP-MyoVa-GTD; experiment: FLIM-FRET at vesicle membranes in HeLa cells; format: cell-based, Mus musculus; conditions: AcGFP-MyoVa-GTD donor
Protocol: Fluorescence lifetimes were imaged with a commercial FLIM upgrade kit (PicoQuant, Berlin, Germany) attached to a confocal microscope LSM 880 (Zeiss, Jena, Germany) using a 440 nm pulsed laser diode at 20 MHz repetition rate. The fluorescence was detected using the Big.2-unit (Zeiss) fed into the TimeHarp 260 photon counting board (PicoQuant). Time series of FLIM images were recorded until bright pixels accumulated at least 1000 photon events. Before pixel wise fitting (Symphotime, 64-bit, version 2, PicoQuant), a region of interest was defined manually by setting a threshold for selecting pixels of high intensity (100–300 photon events per pixel). Fitting employed an exponential two-component model to 20 ns of the decay without binning. Lifetime images contained the color coded, intensity weighted average in each pixel.
For an improved automated selection of vesicular structures in cells, we followed a previously established semi-automated approach ([Austen et al., 2015]). Briefly, confocal imaging was done using a Leica TCS SP5 X confocal microscope equipped with a pulsed white light laser (WLL, 80 MHz repetition rate; NKT Photonics, Birkerod, Denmark), a FLIM X16 TCSPC detector (LaVision Biotec, Bielefeld, Germany) and a 63x water objective (HCX PL APO CS, NA = 1.2). A band-pass filter 514/30 (AHF Analysentechnik, Tübingen, Germany) was used to block acceptor emitted photons. Data analysis includes manual selection of the cytoplasmic regions followed by a threshold algorithm, segmenting high intensity regions based on spatial signal changes at varying levels. The custom-written MATLAB program ([Austen et al., 2015]) calculates the average FRET efficiency E according to E = 1−τDA/τD
with τD as the mean donor lifetime τDA as mean donor lifetime in presence of an acceptor fluorophore. E represents the entire ROI of a single cell. Here, fitting employed an exponential one-component fit to 10 ns of decay; the first 0.5 ns were omitted due to the instrumental response. […]

[5] = target: T1, MyoVa-GTD (Homo sapiens, UniProt Q9Y4I1); experiment: Surface plasmon resonance, Rab11a captured; format: binding
T1 construct: aa 1461 - 1853 (BamHI / XhoI); His6 (6xHis) with rTEV site (N, cleaved yes); made in house; host or cells: Escherichia coli BL21(DE3) or BL21-CodonPlus-RILP
T1 sequence (Q9Y4I1 1463-1855): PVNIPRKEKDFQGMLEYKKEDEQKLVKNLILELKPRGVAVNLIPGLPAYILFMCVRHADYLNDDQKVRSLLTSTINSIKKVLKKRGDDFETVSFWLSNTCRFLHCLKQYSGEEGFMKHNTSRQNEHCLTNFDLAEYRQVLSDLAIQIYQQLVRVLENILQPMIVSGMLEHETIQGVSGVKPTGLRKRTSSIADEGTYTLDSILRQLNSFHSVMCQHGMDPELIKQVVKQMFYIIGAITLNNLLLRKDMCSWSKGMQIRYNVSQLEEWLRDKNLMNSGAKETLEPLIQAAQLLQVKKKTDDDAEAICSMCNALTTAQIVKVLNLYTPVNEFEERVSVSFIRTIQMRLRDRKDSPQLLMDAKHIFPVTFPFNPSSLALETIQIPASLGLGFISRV
Protocol: The assays were carried out at 25°C in buffer (50 mM Hepes pH 7.5, 100 mM NaCl, 2 mM MgCl2, 1 mM TCEP). 200–250 resonance units (RU; 1RU ≈ 1 pg × mm^−2) of Rab11a-Q70L(GTP) or Rab11-wt(GDP) were captured through their His6-tag on the surface of a NTA sensorchip using a Biacore 2000 instrument (GE Healthcare Life Sciences). MyoVa-GTD or MyoVb-GTD (10 nM–5 µM) were then injected over the tethered Rabs for one minute at a flow rate of […]. The surface was regenerated with a 2-min 0.3 M EDTA incubation and a 1-min 0.1% SDS wash. The real-time interaction profiles were double referenced using the Scrubber 2.0 software (BioLogic Software, Campbell, Australia), both the signals from a reference surface (with a non-relevant protein captured on NTA) and from blank experiments using buffer instead of MyoV-GTD were subtracted. The MyoV-GTD concentration-dependence of the steady-state SPR signals was then analyzed to determine the dissociation equilibrium constants (Kd) of the different complexes using the numerical integration algorithm software Biaevaluation 4.1. Each experiment (10 point 2-fold dilution concentration series each) was repeated in triplicate, yielding mean Kd values and standard errors (SEM).

[6] = tested on: Spir-2:MyoVa:Rab11 tripartite complex; experiment: Analytical gel filtration; format: binding, Homo sapiens; conditions: Superdex 200 10/30; 50 mM Tris pH 8.0, 150 mM NaCl, 2 mM MgCl2, 2 mM TCEP
Protocol: Complex formations were analyzed by analytical gel-filtration using Superdex 200 10/30 Increase column (GE Healthcare Life Sciences) and UV light absorbance at 280 nm and 260 nm and Visible light absorbance at 587 nm at flow rate of 0.75 ml/min in 50 mM Tris pH 8.0, 150 mM NaCl, 2 mM MgCl2, 2 mM TCEP buffer. Fractions of 500 µl were collected and analyzed by SDS-PAGE.
A 100 µl sample of His6-Rab11a-1-173-Q70L at 6 mg/ml, or of MyoVa-GTD at 5 mg/ml or of His6-mCherry-Spir-2-linker at 6 mg/ml were centrifuged at 10,000 x g for 10 min and injected into the column to monitor reference elution profiles of the individual proteins. The proteins were mixed pairwise to the same final concentrations and incubated 30 min at 4°C in a total volume of 100 µl. The two-component complexes (His6-mCherry-Spir-2-linker:MyoVa-GTD and MyoVa-GTD:His6-Rab11a-1-173-Q70L) were confirmed by the elution peak shifts and SDS-PAGE analysis. […] The tripartite His6-mCherry-Spir-2-linker:MyoVa-GTD:His6-Rab11a-1-173-Q70L complex was analyzed at the same concentration of the individual components and confirmed by SDS-PAGE.

Spir-2: Myc-hs-Spir2 aa 2 - 714, full-length (QRPRPRVLLKAPTLAEMEEMNTSEEEE)
co-precipitation / interaction with MyoVb-GTD in words [1]: did interact with the GFP-MyoVb-GTD | co-precipitation / interaction with MyoVb-GTD in words ([1]; listed as Myc-Spir-2): co-precipitation | co-precipitation / interaction with MyoVa-GTD in words [2]: interacts | co-precipitation / interaction with MyoVa-GTD in words ([2]; listed as Myc-Spir-2): co-precipitation | pulldown by GST-Rab11a-Q70L in words ([3]; HEK293 lysates over-expressing Myc-Spir-2, Straw-FMN2-FH2-FSI and GFP-MyoVa-FL): able to pull down Myc-Spir-2 | pulldown by GST-Rab11a-Q70L in words, with Q1753R mutant MyoVa ([3]; HEK293 lysates with GFP-MyoVa-Q1753R in place of GFP-MyoVa-FL): Only faint

B1: mStrawberry-Spir-2-GTBM-SB-FYVE: mStrawberry-hs-Spir2-GTBM-SB-FYVE aa 361 - 714 (protein)
chain: GEGWAARGFGSLPCILNACSGDAKSTSCINLSVTDAGGSAQRPRPRVLLKAPTLAEMEEMNTSEEEESPCGEVTLKRDRSFSEHDLAQLRSEVASGLQSATHPPGGTEPPRPRAGSAHVWRPGSRDQGTCPASVSDPSHPLLSNRGSSGDRPEASMTPDAKHLWLEFSHPVESLALTVEEVMDVRRVLVKAEMEKFLQNKELFSSLKKGKICCCCRAKFPLFSWPPSCLFCKRAVCTSCSIKMKMPSKKFGHIPVYTLGFESPQRVSAAKTAPIQRRDIFQSLQGPQWQSVEEAFPHIYSHGCVLKDVCSECTSFVADVVRSSRKSVDVLNTTPRRSRQTQSLYIPNTRTLDFK
modifications: left off: mStrawberry, end not stated, kept
fluorescence lifetime / FRET result in words [4]: able to reduce the fluorescence lifetime

B2: mStrawberry-Spir-2-SB-FYVE: mStrawberry-hs-Spir2-SB-FYVE aa 438 - 714 (protein)
chain: DRSFSEHDLAQLRSEVASGLQSATHPPGGTEPPRPRAGSAHVWRPGSRDQGTCPASVSDPSHPLLSNRGSSGDRPEASMTPDAKHLWLEFSHPVESLALTVEEVMDVRRVLVKAEMEKFLQNKELFSSLKKGKICCCCRAKFPLFSWPPSCLFCKRAVCTSCSIKMKMPSKKFGHIPVYTLGFESPQRVSAAKTAPIQRRDIFQSLQGPQWQSVEEAFPHIYSHGCVLKDVCSECTSFVADVVRSSRKSVDVLNTTPRRSRQTQSLYIPNTRTLDFK
modifications: left off: mStrawberry, end not stated, kept
fluorescence lifetime / FRET result in words [4]: did not alter the lifetime

B3: Spir-2-GTBM-SB-FYVE-LALA: mStrawberry-hs-Spir2-GTBM-SB-FYVE-L408A,L409A (protein)
chain: B1 chain with L48A, L49A
modifications: left off: mStrawberry, end not stated, kept
notes: mStrawberry-hs-Spir2-GTBM-SB-FYVE-L408A,L409A
fluorescence lifetime / FRET result in words [4]: did not alter the lifetime

B4: Rab11GDP: Rab11-wt(GDP) captured through its His6-tag (protein)
chain: MGTRDDEYDYLFKVVLIGDSGVGKSNLLSRFTRNEFNLESKSTIGVEFATRSIQVDGKTIKAQIWDTAGQERYRAITSAYYRGAVGALLVYDIAKHLTYENVERWLKELRDHADSNIVIMLVGNKSDLRHLRAVPTDEARAFAEKNGLSFIETSALDSTNVEAAFQTILTEIYRIVS
modifications: left off: His6, N-terminal, kept
notes: Rab11-wt(GDP) captured through its His6-tag
Kd ([5]; MyoVa-GTD 10 nM–5 µM over captured Rab11a-Q70L(GTP) or Rab11-wt(GDP), 50 mM Hepes pH 7.5, 100 mM NaCl, 2 mM MgCl2, 1 mM TCEP, 25°C, steady state, mean ± SEM, N = 3, read-out: dissociation equilibrium constant (Kd)): 2.62 ± 0.49 µM | affinity in words ([5]; Rab11-GDP for MyoVa): relatively high affinity

B5: Rab11a-Q70L: hs-Rab11a-Q70L aa 1 - 173, GTP-locked mutant (protein)
chain: MGTRDDEYDYLFKVVLIGDSGVGKSNLLSRFTRNEFNLESKSTIGVEFATRSIQVDGKTIKAQIWDTAGLERYRAITSAYYRGAVGALLVYDIAKHLTYENVERWLKELRDHADSNIVIMLVGNKSDLRHLRAVPTDEARAFAEKNGLSFIETSALDSTNVEAAFQTILTEIY
modifications: left off: His6, N-terminal, kept
notes: hs-Rab11a-Q70L aa 1 - 173, GTP-locked mutant
co-elution in gel filtration in words [6]: co-elution of all three proteins
